Source: paper PMC3729231 (Bioorganic & medicinal chemistry letters, 2012)

Columns and labels:
29 other GPCRs = assay: PDSP GPCR binding assay panel: other GPCRs; conditions: listed as ML221
APJ = target: T1, APJ (Homo sapiens, UniProt P35414); assay: cell-based
T1 sequence (P35414 1-380): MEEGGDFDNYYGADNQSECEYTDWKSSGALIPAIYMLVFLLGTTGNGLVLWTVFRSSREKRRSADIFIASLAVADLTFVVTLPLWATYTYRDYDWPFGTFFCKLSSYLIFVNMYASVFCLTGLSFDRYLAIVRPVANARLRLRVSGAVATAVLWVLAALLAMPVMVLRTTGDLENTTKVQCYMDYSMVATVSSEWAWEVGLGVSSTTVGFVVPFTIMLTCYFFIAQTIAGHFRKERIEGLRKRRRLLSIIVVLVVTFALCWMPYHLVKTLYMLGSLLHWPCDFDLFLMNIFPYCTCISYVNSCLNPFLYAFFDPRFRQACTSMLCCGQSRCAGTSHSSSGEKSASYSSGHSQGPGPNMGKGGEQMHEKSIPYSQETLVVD

[1] = aqueous acetonitrile; data not shown

In the case of `O=C(Oc1coc(CSc2ncccn2)cc1=O)c1ccc([N+](=O)[O-])cc1` [Entry 6, 4-oxo-6-((pyrimidin-2-ylthio)methyl)-4H-pyran-3-yl 4-nitrobenzoate], the “binding activity against other GPCRs (in words)” value (29 other GPCRs) is reported as “no significant binding activity”.
`Cc1ccnc(SCc2cc(=O)c(NC(=O)c3ccc([N+](=O)[O-])cc3)co2)n1` [Entry 67] gave an IC50 (APJ) of 12.8 ± 0.35 µM.
In the case of `Cc1ccnc(SCc2cc(=O)c(OC(=O)c3ccc(Cl)c([N+](=O)[O-])c3)co2)n1` [Entry 29], the “hydrolytic stability of the ester bond (in words)” value [1] is reported as “readily hydrolyzed”.
